From patent US8741836B2, “Polypeptides” (Novo Nordisk A/S, priority 2011, dated 2014)
Starred links: 1 amine or outer side, 2 acyl side, 3 side chain; linkers in the order of their positions; H or OH if unused. Positions of bridges follow the written chain, without caps; N, C: chain ends. Residues, ends and D or L forms follow the SMILES beside them. *: point of attachment. C20 diacid = O=C(O)CCCCCCCCCCCCCCCCCCC(=O)*; γGlu = O=C(O)[C@H](CCC(=O)[*:2])N[*:1]

System: ad libitum fed rat
Experiment: Assay (I) efficacy testing on appetite (food intake) using an ad libitum fed rat model
Assay type: in vivo, Sprague Dawley (SD) rats
Details: 3 nmol/kg
Text: In the following examples reference is made to the following Assays: • Assay (I)—Experimental protocol for efficacy testing on appetite using an ad libitum fed rat model • ASSAY (II)a—Functional assay—Human calcitonin and amylin receptor assay • ASSAY (II)b—Functional assay—Rat calcitonin and rat amylin receptor assays • ASSAY (III)—ThT fibrillation assays for the assessment of physical stability of protein formulations • ASSAY (IV)—Determination of solubility • ASSAY (V)—Determination of binding to the human amylin receptor • ASSAY (VI)—Determination of the binding to the rat amylin receptor • ASSAY (VII)—Determination of binding to the human calcitonin receptor • ASSAY (VIII)—Determination of binding to the rat calcitonin receptor • ASSAY (IX)—pK—Determination of T½ in mini-pig • ASSAY (X)—pK—Determination of T½ in rat Assay (I)—Experimental protocol for Efficacy Testing on Appetite Using an Ad Libitum Fed Rat Model
Sprague Dawley (SD) rats from Taconic Europe, Denmark are used for the experiments. The rats have a body weight 200-250 g at the start of experiment. The rats arrive at least 10-14 days before start of experiment to allow acclimatization to experimental settings. During this period the animals are handled at least 2 times. After arrival rats are housed individually for one week in a reversed light/dark phase (meaning that lights are off during daytime and on during nighttime) […]. Since rats are normally active and eat their major part of their daily food intake during the dark period, rats are dosed in the morning right before lights are turned off. This set-up results in the lowest data variation and highest test sensitivity. The experiment is conducted in the rats' home cages and rats have free access to food and water throughout the acclimatization period and the experiment period. Each dose of derivative is tested in a group of 5-8 rats. A vehicle group of 6-8 rats is included in each set of testing. Rats are dosed once according to body weight with a 0.01-3 mg/kg solution administered intraperitoneally (ip), orally (po) or subcutaneously (sc). The time of dosing is recorded for each group. After dosing, the rats are returned to their home cages, where they then have access to food and water. The food consumption is recorded individually continuously by on-line registration or manually every hour for 7 hours, and then after 24 h and sometimes 48 h. At the end of the experimental session, the animals are euthanised.
The individual data are recorded in Microsoft excel sheets. Outliers are excluded after applying the Grubbs statistical evaluation test for outliers, and the result is presented graphically using the GraphPad Prism program.

SMILES	Food intake reduction 0-24 h 3 nmol/kg (%)	Food intake reduction 24-48 h 3 nmol/kg (%)
CC[C@H](C)[C@H](NC(=O)[C@@H]1CCCN1C(=O)CNC(=O)[C@H](Cc1ccccc1)NC(=O)[C@H](CC(N)=O)NC(=O)[C@H](CC(N)=O)NC(=O)[C@H](CO)NC(=O)[C@H](CO)NC(=O)[C@H](Cc1c[nH]cn1)NC(=O)[C@H](Cc1c[nH]cn1)NC(=O)[C@H](CC(C)C)NC(=O)[C@H](Cc1ccccc1)NC(=O)[C@H](CCC(=O)O)NC(=O)[C@H](C)NC(=O)[C@H](CC(C)C)NC(=O)[C@H](CCCNC(=N)N)NC(=O)[C@H](CCC(N)=O)NC(=O)[C@@H](NC(=O)[C@H](C)NC(=O)[C@@H]1CSSC[C@H](NC(=O)[C@H](CCCCN)NC(=O)CC[C@H](NC(=O)CCCCCCCCCCCCCCCCCCC(=O)O)C(=O)O)C(=O)N[C@@H](CC(N)=O)C(=O)N[C@@H]([C@@H](C)O)C(=O)N[C@@H](C)C(=O)N[C@@H]([C@@H](C)O)C(=O)N1)[C@@H](C)O)C(=O)N[C@@H](CC(C)C)C(=O)N1CCC[C@H]1C(=O)N1CCC[C@H]1C(=O)N[C@H](C(=O)N[C@@H](CC(N)=O)C(=O)N[C@H](C(=O)NCC(=O)N[C@@H](CO)C(=O)N[C@@H](CC(N)=O)C(=O)N[C@H](C(=O)N[C@@H](Cc1ccc(O)cc1)C(N)=O)[C@@H](C)O)C(C)C)[C@@H](C)O [Example 27, N-alpha-[(S)-4-Carboxy-4-(19-carboxynonadecanoylamino)butyryl]-[Glu14,His17]-pramlintide] ({C20 diacid-γGlu}-KCNTATCATQRLAEFLHHSSNNFGPILPPTNVGSNTY-NH2; disulfide 2-7 (inferred))	56%	53%
CC[C@H](C)[C@H](NC(=O)[C@@H]1CCCN1C(=O)CNC(=O)[C@H](Cc1ccccc1)NC(=O)[C@H](CC(N)=O)NC(=O)[C@H](CC(N)=O)NC(=O)[C@H](CO)NC(=O)[C@H](CO)NC(=O)[C@H](Cc1c[nH]cn1)NC(=O)[C@H](Cc1c[nH]cn1)NC(=O)[C@H](CC(C)C)NC(=O)[C@H](Cc1ccccc1)NC(=O)[C@H](CCC(=O)O)NC(=O)[C@H](C)NC(=O)[C@H](CC(C)C)NC(=O)[C@H](CCCNC(=N)N)NC(=O)[C@H](CCC(N)=O)NC(=O)[C@@H](NC(=O)[C@H](C)NC(=O)[C@@H]1CSSC[C@H](NC(=O)CC[C@H](NC(=O)CCCCCCCCCCCCCCCCCCC(=O)O)C(=O)O)C(=O)N[C@@H](CC(N)=O)C(=O)N[C@@H]([C@@H](C)O)C(=O)N[C@@H](C)C(=O)N[C@@H]([C@@H](C)O)C(=O)N1)[C@@H](C)O)C(=O)N[C@@H](CC(C)C)C(=O)N1CCC[C@H]1C(=O)N1CCC[C@H]1C(=O)N[C@H](C(=O)N[C@@H](CC(N)=O)C(=O)N[C@H](C(=O)NCC(=O)N[C@@H](CO)C(=O)N[C@@H](CC(N)=O)C(=O)N[C@H](C(=O)N[C@@H](Cc1ccc(O)cc1)C(N)=O)[C@@H](C)O)C(C)C)[C@@H](C)O [Example 28, N-alpha-[(S)-4-Carboxy-4-(19-carboxynonadecanoylamino)butyryl]-[des1,Glu14,His17]-pramlintide] ({C20 diacid-γGlu}-CNTATCATQRLAEFLHHSSNNFGPILPPTNVGSNTY-NH2; disulfide 1-6)	39%	36%
